Data on three compounds can be found in patent US9861625B2, “Methods and compositions for treating cancer through inhibition of PI3K” (Duke University, priority 2014, dated 2018).

Read-outs that look alike come from different tables or passages of the source.

Common to all, as to format: cell-based
In assay [1] the test system is PI3K pathway (p-AKT, p-S6, p-GSKalpha, p-GSKbeta) in BJAB DLBCL cells. Briefly: Confirmation of pathway downregulation (Western blot) in BJAB. The conditions noted are these: for inhibition of the PI3K pathway: BJAB, time-course and dose-escalation experiments. The protocol: RIPA lysis buffer (1×PBS, 1% NP-40, 0.5% sodium deoxycholate, 0.1% SDS, 10 mmol/L sodium orthovanadate) was added to 750,000 cells and incubate on ice for 30 minutes. The mixture was spun down, and the supernatant was transferred to a new tube as the whole-cell extract. A total of 20 μg cell lysate was separated on a 4% to 18% Tris-Bis NuPAGE gel (Invitrogen) and transferred using the iBlot transfer device (Invitrogen) program 3 for seven minutes. The blots were probed with a 1:100 p-AKT, 1:1000 total AKT, 1:100p-GSK3alpha, 1:100 p-GSK3beta, or 1:100 p-s6 (Cell Signaling), or 1:5000 goat anti-β-actin (SC-47778, Santa Cruz Biotech) for one hour at room temperature. The antibodies were detected by the use of 1:10,000 goat anti-mouse-HRP conjugated antibodies (Santa Cruz Biotech). Western Blotting Luminol Reagent (Santa Cruz Biotech) was used to visualize the bands corresponding to each antibody.
One million BJAB DLBCL cells were treated with increasing doses of BEZ235, and, after six hours, the cells were analyzed for a dose-dependent effect at 15, 30, 60, 125, 250, and 500 nmol/L concentrations. Cell count and viability were measured for each concentration. […] Western blot analyses were performed to assess phosphorylation of AKT, GSK3alpha, GSK3beta, and S6.
Inhibition of the PI3K pathway by the three PI3K inhibitors was confirmed through separate time-course and dose-escalation experiments, as well as by measuring the expression of key downstream members of the pathway. The drugs were tested in the BJAB DLBCL for their effects on p-AKT, p-S6, p-GSKalpha, and p-GSKbeta. […] An associated decrease in cell viability was ruled out by quantifying the proportion of viable cells at each time point using trypan blue staining.
On the technique in general: In western blotting, separated proteins are transferred to a membrane and probed.

Assay [2] concerns Farage. Briefly: MTT cell viability assay. Conditions: GCB DLBCL, RPMI 10% FBS. The source says: (§1) A total of 60 cell lines representative of different cancer types were obtained from the ATCC and grown and maintained in accordance with the provided guidelines. The cell lines represented the following distinct histologies: mantle cell lymphoma (5 lines: JVM13, Rec1, Mino, JVM2, Jeko); germinal center B-cell derived (“GCB”) DLBCL (19 lines: Farage, BJAB, Ly1, Ly2, Ly7, Ly8, Ly19, HBL2, HT, Karpas422, Pfeiffer, RCK8, RL, Sci-1, Ski, SUDHL4, SUDHL7, Toledo, WSU-NHL); primary mediastinal B-cell lymphoma (“PMBL”) (3 lines: K1106, MEDB1, U2940); Burkitt lymphoma (11 lines: Daudi, CA46, EB1, EB2, EB3, Jijoye, Raji, Ramos, Namwala, BL2, BL41); Hodgkin lymphoma (3 lines: RMPI6666, L1236, L428); activated B-cell derived (“ABC”) DLBCL (6 lines: Ly3, HBL1, TMD8, Ly10, Riva, U2932); multiple myeloma (6 lines: U266, SKMM1, RPMI8226, KMS12, IM9, H929); acute myelogenous leukemia (“AML”) (2 lines: U937, KG1); acute lymphoblastic leukemia (“ALL”) (2 lines: Reh, SR); and T-cell lymphoma (3 lines: Molt4, RPMI8402, Jurkat). The cell lines were tested within six months after resuscitation.
(§2) The 3-(4,5-dimethylthiazol-2-yl)-2,5-diphenyltetrazolium bromide (MTT) cell viability assay was used to determine cell viability in response to drug treatment. Five replicates per concentration tested were carried out in serial dilutions with a total of ten concentrations with a 50% reduction in drug concentration per dilution for each plate. A total of 15 μl of MTT reagent was added to each drug-treated well and incubated for three hours in 37° C. Detergent was added to each drug-treated well and incubated overnight at room temperature without exposure to light. Absorbance was measured at 570 nm using a plate reader from Tecan Group. The IC50 concentration was determined using the publicly available ED50 plus v1.0 software program.
(In general: Tetrazolium assays rely on reduction of a dye to a coloured formazan, in cell work by metabolically active cells.)

The test system of assay [3] is EB1. Briefly: MTT cell viability assay. Conditions: EB1, Burkitt Lymphoma, RPMI 10% FBS.
Source text: as §1, §2

In assay [4] the test system is Molt 4. The assay is described as follows: MTT cell viability assay. Conditions: Homo sapiens; Molt 4, T-cell, RPMI 10% FBS.
Source text: as §1, §2

Assay [5] relates to LY19. Briefly: MTT cell viability assay. Conditions: LY19, GCB DLBCL, OCI.
Source text: as §1, §2

In assay [6] the test system is Karpas422. Briefly: MTT cell viability assay. The conditions noted are these: Homo sapiens, KARPAS-422; Karpas422, GCB DLBCL, RPMI 10% FBS.
Source text: as §1, §2

The subject of assay [7] is MEDB1. Briefly: MTT cell viability assay. The conditions noted are these: MEDB1, PMBL, RPMI 10% FBS.
Source text: as §1, §2

In assay [8] the test system is Jeko. The assay is described as follows: MTT cell viability assay. The conditions noted are these: MantleCellLymphoma, RPMI 10% FBS.
Source text: as §1, §2

Assay [9] has as its system K1106. The assay is described as follows: MTT cell viability assay. Conditions: K1106, PMBL, RPMI 15% FBS.
Source text: as §1, §2

The subject of assay [10] is BJAB. The assay is described as follows: MTT cell viability assay. The conditions noted are these: Homo sapiens.
Source text: as §1, §2

Assay [11] relates to IM9. Briefly: MTT cell viability assay. The conditions noted are these: Homo sapiens, IM-9; IM9, Multiple Myeloma, RPMI 10% FBS.
Source text: as §1, §2

Assay [12] relates to EB2. Briefly: MTT cell viability assay. Conditions: Homo sapiens; EB2, Burkitt Lymphoma, RPMI 10% FBS.
Source text: as §1, §2

The subject of assay [13] is KG1. The assay is described as follows: MTT cell viability assay. Conditions: Homo sapiens, KG-1; KG1, AML, IMDM 20% FBS.
Source text: as §1, §2

For assay [14], the system named is U937. Briefly: MTT cell viability assay. Conditions: Homo sapiens, U-937; U937, AML, RPMI 10% FBS.
Source text: as §1, §2

In assay [15] the test system is RL. Briefly: MTT cell viability assay. The conditions noted are these: Homo sapiens, GCB DLBCL, RPMI 10% FBS.
Source text: as §1, §2

Assay [16] concerns TMD8. Briefly: MTT cell viability assay. The conditions noted are these: Homo sapiens; TMD8, ABC DLBCL, MEM-α 10% FBS.
Source text: as §1, §2

Assay [17] has as its system Rec1. Briefly: MTT cell viability assay. Conditions: Homo sapiens; Rec1, MantleCellLymphoma, RPMI 10% FBS.
Source text: as §1, §2

Assay [18] relates to Daudi. The assay is described as follows: MTT cell viability assay. The conditions noted are these: Homo sapiens, Burkitt Lymphoma, RPMI 10% FBS.
Source text: as §1, §2

The test system of assay [19] is LY3. The assay is described as follows: MTT cell viability assay. The conditions noted are these: LY3, ABC DLBCL, OCI.
Source text: as §1, §2

The mark [20] stands for this setting: BJAB, GCB DLBCL, RPMI 10% FBS, read-out: IC50.

Regarding `Nc1cc(C(F)(F)F)c(-c2cc(N3CCOCC3)nc(N3CCOCC3)n2)cn1` [BKM120], in assay [1], the “inhibition of the PI3K pathway” value is “directly inhibit the PI3K pathway”. For the same compound, the IC50 in [2] was determined as 752 nM; in [3] it was 1070 nM; in assay [4], 1110 nM; in [5], 1890 nM; in assay [6], 2080 nM; in [7], 7790 nM. The IC50 in [8] stood at 752 nM; in [9], 1870 nM; in assay [10] (setting [20]), 1470 nM; in assay [11] it was 575 nM; in assay [12], 1070 nM; in assay [13] it was 724 nM. Also, the IC50 in assay [14] came to 895 nM; in assay [15], 2600 nM; in assay [16], 764 nM; in assay [17] it was 776 nM; in [18], 1300 nM; in [19], 893 nM.

`Cn1c(=O)n(-c2ccc(C(C)(C)C#N)cc2)c2c3cc(-c4cnc5ccccc5c4)ccc3ncc21` [BEZ235]: the “down regulation of PI3K targets, time course” value in assay [1] (30 nmol/L BEZ235, three and six hours after treatment, total AKT and actin unchanged) is reported as “time-dependent down regulation”. For the same compound, the “inhibition of the PI3K pathway” value in assay [1] is reported as “directly inhibit the PI3K pathway”. The IC50 in [2] was 509 nM; in assay [3], 22.6 nM; in assay [4], 168 nM; in assay [5] it was 224 nM; in assay [6], 22 nM; in assay [7] it was 1830 nM. Besides, the IC50 in assay [8] worked out at 51 nM; in [9], 536 nM; in assay [10] (BJAB cells, read-out: IC50 concentration) it was 26.9 nM; in [10] (BJAB cells, read-out: observed IC50), 26.9 nM; in [10] (setting [20]), 26.9 nM; in assay [11] it was 4500 nM. Besides, the IC50 in assay [12] came out at 70.2 nM; in assay [13] it was 79.9 nM; in assay [14], 15 nM; in [15], 26 nM; in [16], 118 nM; in assay [17], 82.3 nM. The values for the IC50 in assay [18] and in assay [19] were 46.7 nM and 80 nM, respectively.

For `COc1ccc(-c2ccc3ncc4c(c3c2)n(-c2ccc(N3CCNCC3)c(C(F)(F)F)c2)c(=O)n4C)cn1` [BGT226], the “inhibition of the PI3K pathway” value in assay [1] is recorded as “directly inhibit the PI3K pathway”. Further, the IC50 was determined as 162 nM in [2]; 71.6 nM in assay [3]; 8 nM in assay [4]; 33.3 nM in [5]; 85.3 nM in assay [6]; 49.7 nM in assay [7]. In addition, the IC50 was found to be 16.6 nM in [8]; 18.2 nM in [9]; 8.5 nM in [10] (setting [20]); 201 nM in assay [11]; 199 nM in assay [12]; 25.1 nM in assay [13]. Further, the IC50 in assay [14] came to 11.2 nM; in [15], 64.1 nM; in [16], 101 nM; in assay [17] it was 35.9 nM; in assay [18] it was 86.4 nM; in assay [19] it was 20.4 nM.
